Experiments:
Experiment in all cases: relative viability (nuclei count vs DMSO), 5 days (fraction); higher = more cells survive
HCC-78 = test system: HCC-78
Outline: (§1)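 The day after seeding in 1536-well plates, lung cancer cell lines were treated by pin tool with a single drug, or with a fixed anchor-drug dose together with five library-drug doses (not always all listed) in √10 steps. After 5 days, a combined fix-and-stain solution (final 0.05% Triton X-100, 1% formaldehyde, 1 ug/ml Hoechst) was added. Nuclei counted on 4× images gave relative viability as treated counts over vehicle counts, reported as the median of duplicate plates.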

NCI-H2170 = test system: NCI-H2170
Outline: as §1

NCI-H2228 = test system: NCI-H2228
Outline: as §1

NCI-H1734 = test system: NCI-H1734
Outline: as §1

RERF-LC-KJ = test system: RERF-LC-KJ
Outline: as §1

UMC-11 = test system: UMC-11
Outline: as §1

NCI-H2405 = test system: NCI-H2405
Outline: as §1

NCI-H1944 = test system: NCI-H1944
Outline: as §1

PC-3 [JPC-3] = test system: PC-3 [JPC-3]
Outline: as §1

NCI-H460 = test system: NCI-H460
Outline: as §1

NCI-H3122 = test system: NCI-H3122
Outline: as §1

NCI-H1651 = test system: NCI-H1651
Outline: as §1

EPLC-272H = test system: EPLC-272H
Outline: as §1

LC-2-ad = test system: LC-2-ad
Outline: as §1

NCI-H1395 = test system: NCI-H1395
Outline: as §1

NCI-H2087 = test system: NCI-H2087
Outline: as §1

LU99A = test system: LU99A
Outline: as §1

ABC-1 = test system: ABC-1
Outline: as §1

CAL-12T = test system: CAL-12T
Outline: as §1

NCI-H1755 = test system: NCI-H1755
Outline: as §1

HCC-366 = test system: HCC-366
Outline: as §1

LOU-NH91 = test system: LOU-NH91
Outline: as §1

NCI-H1793 = test system: NCI-H1793
Outline: as §1

C[C@@H]1CN(CC(=O)Nc2ccc3c(c2)Cc2cccc(-c4cc(=O)cc(N5CCOCC5)o4)c2S3)C[C@H](C)O1 + CS(=O)(=O)CCNCc1ccc(-c2ccc3ncnc(Nc4ccc(OCc5cccc(F)c5)c(Cl)c4)c3c2)o1 [Lapatinib] (partner 2 µM)
relative viability (HCC-78; first compound 0.04 µM): 0.64
relative viability (HCC-78; first compound 0.1265 µM): 0.705
relative viability (HCC-78; first compound 0.4 µM): 0.702
relative viability (HCC-78; first compound 4 µM): 0.703
relative viability (NCI-H2170; first compound 0.1265 µM): 0.251
relative viability (NCI-H2170; first compound 0.4 µM): 0.277
relative viability (NCI-H2170; first compound 4 µM): 0.277
relative viability (NCI-H2228; first compound 0.04 µM): 1.23
relative viability (NCI-H2228; first compound 0.1265 µM): 1.05
relative viability (NCI-H2228; first compound 0.4 µM): 0.974
relative viability (NCI-H2228; first compound 4 µM): 0.618
relative viability (NCI-H1734; first compound 0.04 µM): 1.02
relative viability (NCI-H1734; first compound 0.1265 µM): 1.17
relative viability (NCI-H1734; first compound 0.4 µM): 1.03
relative viability (NCI-H1734; first compound 4 µM): 1.23
relative viability (RERF-LC-KJ; first compound 0.04 µM): 0.873
relative viability (RERF-LC-KJ; first compound 0.1265 µM): 0.877
relative viability (RERF-LC-KJ; first compound 0.4 µM): 0.808
relative viability (RERF-LC-KJ; first compound 4 µM): 0.799
relative viability (UMC-11; first compound 0.04 µM): 0.984
relative viability (UMC-11; first compound 0.1265 µM): 0.927
relative viability (UMC-11; first compound 0.4 µM): 1.1
relative viability (UMC-11; first compound 4 µM): 0.694
relative viability (NCI-H2405; first compound 0.04 µM): 0.879
relative viability (NCI-H2405; first compound 0.1265 µM): 1.11
relative viability (NCI-H2405; first compound 0.4 µM): 1.04
relative viability (NCI-H2405; first compound 4 µM): 1.07
relative viability (NCI-H1944; first compound 0.1265 µM): 0.803
relative viability (NCI-H1944; first compound 0.4 µM): 0.977
relative viability (NCI-H1944; first compound 4 µM): 0.876
relative viability (PC-3 [JPC-3]; first compound 0.04 µM): 0.512
relative viability (PC-3 [JPC-3]; first compound 0.1265 µM): 0.394
relative viability (PC-3 [JPC-3]; first compound 0.4 µM): 0.52
relative viability (PC-3 [JPC-3]; first compound 4 µM): 0.454
relative viability (NCI-H460; first compound 0.04 µM): 0.941
relative viability (NCI-H460; first compound 0.1265 µM): 1.02
relative viability (NCI-H460; first compound 0.4 µM): 1.04
relative viability (NCI-H460; first compound 4 µM): 0.799
relative viability (NCI-H3122; first compound 0.04 µM): 1.05
relative viability (NCI-H3122; first compound 0.1265 µM): 1.01
relative viability (NCI-H3122; first compound 0.4 µM): 1.07
relative viability (NCI-H3122; first compound 4 µM): 0.988
relative viability (NCI-H1651; first compound 0.04 µM): 0.82
relative viability (NCI-H1651; first compound 0.1265 µM): 0.889
relative viability (NCI-H1651; first compound 0.4 µM): 0.78
relative viability (NCI-H1651; first compound 4 µM): 0.795
relative viability (EPLC-272H; first compound 0.04 µM): 0.837
relative viability (EPLC-272H; first compound 0.1265 µM): 1
relative viability (EPLC-272H; first compound 0.4 µM): 1.01
relative viability (EPLC-272H; first compound 4 µM): 0.783
relative viability (LC-2-ad; first compound 0.04 µM): 1
relative viability (LC-2-ad; first compound 0.1265 µM): 0.928
relative viability (LC-2-ad; first compound 0.4 µM): 0.672
relative viability (LC-2-ad; first compound 4 µM): 0.875
relative viability (NCI-H1395; first compound 0.04 µM): 0.928
relative viability (NCI-H1395; first compound 0.1265 µM): 1
relative viability (NCI-H1395; first compound 0.4 µM): 1.06
relative viability (NCI-H1395; first compound 4 µM): 0.93
relative viability (NCI-H2087; first compound 0.04 µM): 1.06
relative viability (NCI-H2087; first compound 0.1265 µM): 1.01
relative viability (NCI-H2087; first compound 0.4 µM): 1.13
relative viability (NCI-H2087; first compound 4 µM): 0.798
relative viability (LU99A; first compound 0.04 µM): 0.783
relative viability (LU99A; first compound 0.1265 µM): 1.15
relative viability (LU99A; first compound 0.4 µM): 1.08
relative viability (LU99A; first compound 4 µM): 1.04
relative viability (ABC-1; first compound 0.04 µM): 0.964
relative viability (ABC-1; first compound 0.1265 µM): 1.06
relative viability (ABC-1; first compound 0.4 µM): 1.22
relative viability (ABC-1; first compound 4 µM): 1.21
relative viability (CAL-12T; first compound 0.04 µM): 0.28
relative viability (CAL-12T; first compound 0.1265 µM): 0.69
relative viability (CAL-12T; first compound 0.4 µM): 0.667
relative viability (CAL-12T; first compound 4 µM): 0.636
relative viability (NCI-H1755; first compound 0.04 µM): 1.1
relative viability (NCI-H1755; first compound 0.1265 µM): 0.995
relative viability (NCI-H1755; first compound 0.4 µM): 1
relative viability (NCI-H1755; first compound 4 µM): 0.932
relative viability (HCC-366; first compound 0.04 µM): 0.383
relative viability (HCC-366; first compound 0.1265 µM): 0.974
relative viability (HCC-366; first compound 0.4 µM): 1.17
relative viability (HCC-366; first compound 4 µM): 0.824
relative viability (LOU-NH91; first compound 0.04 µM): 0.689
relative viability (LOU-NH91; first compound 0.1265 µM): 0.792
relative viability (LOU-NH91; first compound 0.4 µM): 0.676
relative viability (LOU-NH91; first compound 4 µM): 0.733
relative viability (NCI-H1793; first compound 0.04 µM): 0.809
relative viability (NCI-H1793; first compound 0.1265 µM): 0.743
relative viability (NCI-H1793; first compound 0.4 µM): 0.734
relative viability (NCI-H1793; first compound 4 µM): 0.649

Source: the supplement of paper PMC10307832
